Assay results as given in patent US10307414B2, “Pyridinyl and fused pyridinyl triazolone derivatives” (Takeda Pharmaceutical Company Limited, priority 2013, dated 2019).

Biological target: human BTK (Homo sapiens (Human), UniProt Q06187)
Assay: BTK inhibition assay: BTK-mediated phosphorylation of FAM-labeled substrate 5-FAM-[…]-NH2 (Caliper microfluidic separation)
Assay type: biochemical
Details: residues 382 to 659 of human BTK; 60 minutes at room temperature; pIC50 = -log(IC50), IC50 molar
Text: The activity of compounds as BTK inhibitors may be determined by a variety of methods, including in vitro and in vivo methods.
This construct engineers an in-frame translational fusion with the Glutathione-S-Transferase (GST) protein for use in affinity purification. The fusion protein derived from this construct contains a protease recognition sequence to liberate the BTK from the GST affinity tag. […] Recombinant proteins are isolated from cellular extracts by passage over Glutathione Sepharose 4B (GE Healthcare) and the BTK moiety is released from the GST affinity tag by treatment with PreScission protease. […] The purity of the fractions is assessed by SDS PAGE and the peak protein fractions are pooled and concentrated using Amicon Ultra-15 Centrifugal Filter Devices (Millipore).
The inhibitory properties of compounds relative to BTK is determined using a black 384-well-plate format in a buffer which contains 50 mM Hepes, 10 mM NaCl, 10 mM MgCl2, 0.2 mM EDTA, 0.01% Brij35®, 1 mM DTT, and 0.1 mg/mL BSA at pH 7.3. […] To quantify the fluorescent-labeled substrate and product following reaction, the test plate is loaded on a Caliper LC-3000, which measures percent of conversion by microfluidic-based separation. […]

Chain of human BTK (Q06187 382-659): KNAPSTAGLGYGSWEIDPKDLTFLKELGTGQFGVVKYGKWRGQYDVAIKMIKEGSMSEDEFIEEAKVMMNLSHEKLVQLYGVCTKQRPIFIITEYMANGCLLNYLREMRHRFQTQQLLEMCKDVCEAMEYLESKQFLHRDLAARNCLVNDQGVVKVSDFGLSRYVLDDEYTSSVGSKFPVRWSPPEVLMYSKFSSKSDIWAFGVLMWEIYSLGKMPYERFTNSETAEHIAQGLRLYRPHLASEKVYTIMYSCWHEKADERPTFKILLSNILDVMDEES

## C=CC(=O)N1C[C@@H](C)[C@H](Oc2nc(-c3n[nH]c(=O)[nH]3)cc3ccccc23)C1 (single isomer, unassigned) [Example 19]
  BTK Inhibition (pIC50): >8.2
